Laboratory results taken from patent publication US5510240A, “Method of screening a peptide library” (The Arizona Board of Regents, priority 1993, dated 1996).
Where no end group is shown, it is not given here.

What was measured:
streptavidin = target: T1, streptavidin (Streptomyces avidinii, UniProt P22629); assay: biotin inhibition of LHPQF-resin staining by streptavidin-alkaline phosphatase; format: binding
T1 construct: purchased Pierce, Rockford, Ill
Protocol: FIG. 8. […] A: 100 nM; B: 10 nM; C: 1 nM; and D: 0.1 nM biotin. Blank beads (β-Ala-aminocaproic acid-resin) were mixed 1:1 with the LHPQF-resin prior to incubating with streptavidin-alkaline phosphatase to serve as an internal negative control.
The LHPQF-resin was then mixed with streptavidin-alkaline phosphatase in the presence of varying concentration of biotin. […] The inhibition study establishes that the HPQ consensus sequence binds to the biotin-binding site of streptavidin.

[1] = UV/VIS irradiation cleavage of ONb linker peptides, HPLC analysis; format: physicochemical; conditions: in water
Protocol: Each peptide was irradiated for 1 and 3 hours with ultraviolet (UV) and visible (VIS) light in 0.3 ml of water or 3/7 mixture of chloroethanol:dichloromethane. A total of 16+16 experiments were run and assayed.
After exposure the supernatant was filtered off, lyophilized and re-dissolved to equal volumes of MeOH (0.3 ml). The products were analyzed on the HPLC.

anti-v-mos = conditions: known property of the commercial antibody; cited from earlier work
[2] = tested on: anti-v-mos monoclonal antibody; assay: bead staining with anti-v-mos monoclonal antibody; format: binding, mouse; conditions: antibody 1 ug/ml; ABTS substrate with H2O2, 15 minutes
Protocol: The long v-mos beads were mixed with a thousand fold excess of the short v-mos beads. Two milliliters of the purified anti-v-mos monoclonal antibody (1 μg/ml) in PBS with 0.1% polyoxyethylenesorbitan monolaurate (TWEEN 20®) was added to the mixture of long and short v-mos beads and incubated at room temperature for one hour with gentle mixing. The beads were then washed for one hour with gentle mixing. The beads were then washed on a small polypropylene disposable column (obtained from Isolab) where the beads were retained by the frit. The beads were then mixed with 2 ml of a secondary antibody at 1:2000 dilution for one hour. After washing, the beads were poured into a polystyrene petri dish and allowed to settle. […]
The beads were washed on a small polypropylene disposable column (obtained from Isolab) which retained the beads on a frit. […] The v-mos beads were readily distinguished.
Approximately 230,000 beads were screened with an anti-v-mos alkaline phosphatase conjugate. […] Twenty-four of these beads were physically selected out and the amino acid sequence of eleven of them was determined. […]

[3] = peptide-bead reduction of nitro blue tetrazolium without exogenous enzyme; format: biochemical; conditions: absence of exogenous enzyme
From the text: The peptide library was exposed to the chromogenic substrate nitro blue tetrazolium (NBT) chloride in the absence of exogeneous enzyme under conditions conducive to product formation, and positive reacting beads were identified. These beads were selected and sequenced.

anti-β-endorphin MAb = assay: bead library screening with biotinylated anti-β-endorphin MAb and streptavidin-alkaline phosphatase; format: binding; conditions: recycled pentapeptide library, 16 hours
Protocol: Prior to using the same random peptide library to screen with anti-β-endorphin MAb, all the blue beads that had stained for streptavidin-alkaline phosphatase alone were removed. The remaining beads were then treated with 8M guanidine hydrochloride to remove any bound protein. This recycled library was then mixed with biotinylated anti-β-endorphin MAb (anti-β-endorphin, clone 3-E7, was obtained commercially from Boehringer Mannheim, Indianapolis, Ind.) for 16 hours. After extensive washing, a secondary step with streptavidin-alkaline phosphatase was used to trigger the staining reaction for the ELISA. […] Peptide analogues with various carboxyl terminus of these ligand leads were synthesized and their affinity (Ki) was determined using ^3 H!Leu-enkaphalin (New England Nuclear, Boston, Mass.) as the labelled ligand and the unlabelled peptides as the competing ligand (anti-β-endorphin assay, Section 10.1.2, supra).

T1 sequence (P22629 25-183, species assumed): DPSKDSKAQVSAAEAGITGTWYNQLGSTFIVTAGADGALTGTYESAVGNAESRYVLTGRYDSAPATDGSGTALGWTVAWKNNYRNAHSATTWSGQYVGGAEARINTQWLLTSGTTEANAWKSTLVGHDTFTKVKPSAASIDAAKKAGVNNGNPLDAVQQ

O=C(O)CCCC[C@@H]1SC[C@@H]2NC(=O)N[C@@H]21 [biotin]
effect on the staining of LHPQF-resin mimotope beads by streptavidin-alkaline phosphatase (streptavidin; FIG. 8, 100, 10, 1 and 0.1 nM biotin): concentration-dependent inhibitory effect
staining of the LHPQF-resin (streptavidin; biotin at 0.1 nM): no effect
staining of the LHPQF-resin (streptavidin; biotin at 1.0 nM): partially inhibited
staining of the LHPQF-resin (streptavidin; biotin at 10 nM): partially inhibited
staining of the LHPQF-resin (streptavidin; biotin at 100 nM): completely blocked

Fmoc-Trp-Tyr(OBu^t)-Phe-ONb-βAla-ACA-EDA-PepSyn K (WYFX; Fmoc, OBut, ONb-βAla-ACA-EDA-PepSyn K resin linkage) [peptide i]
cleavage products [1]: cleaved to a single product

GSVYKA [short v-mos peptide]
affinity of anti-v-mos antibody (anti-v-mos): negligible affinity

Gly-Phe-Gly-Ser-Val-Tyr-aminocaproic acid-β-Ala-resin [PAM resin/v-mos peptide beads]
bead color after anti-v-mos antibody and labelled secondary antibody [2]: turned dark green

PNNNH (also: bead-bound) [PNNNH-bead]
reduction of NBT to dark blue diformazan [3]: capable of reducing NBT to a dark blue diformazan pigment

YGGFA (not fully specified) [tested with carboxyl terminus OH, NH2, βA-OH, βA-NH2]
identification as ligand in anti-β-endorphin MAb bead screening (anti-β-endorphin MAb): identified

YGGFQ (not fully specified) [tested with carboxyl terminus OH, NH2, βA-OH, βA-NH2]
identification as ligand in anti-β-endorphin MAb bead screening (anti-β-endorphin MAb): identified

YGGFT (not fully specified) [tested with carboxyl terminus OH, NH2, βA-OH, βA-NH2]
identification as ligand in anti-β-endorphin MAb bead screening (anti-β-endorphin MAb): identified

YGGLQ (not fully specified) [tested with carboxyl terminus OH, NH2, βA-OH, βA-NH2]
identification as ligand in anti-β-endorphin MAb bead screening (anti-β-endorphin MAb): identified

YGGLS (not fully specified) [tested with carboxyl terminus OH, NH2, βA-OH, βA-NH2]
identification as ligand in anti-β-endorphin MAb bead screening (anti-β-endorphin MAb): identified

YGGMV (not fully specified) [tested with carboxyl terminus OH, NH2, βA-OH, βA-NH2]
identification as ligand in anti-β-endorphin MAb bead screening (anti-β-endorphin MAb): identified
